Our source for the IC50 values is patent US10294207B2, “Pyrazole derivatives as TNIK, IKKϵ and TBK1 inhibitor and pharmaceutical composition comprising same” (GREEN CROSS CORPORATION, priority 2015, dated 2019).

A word on the IC50: it is the concentration at which inhibition is half-maximal.

Some results are limits rather than exact numbers.

For one assay, the target named is T1, IKKε (Homo sapiens, UniProt Q14164).
T1 construct: purchased Invitrogen PR8031B
T1 sequence (Q14164 1-716): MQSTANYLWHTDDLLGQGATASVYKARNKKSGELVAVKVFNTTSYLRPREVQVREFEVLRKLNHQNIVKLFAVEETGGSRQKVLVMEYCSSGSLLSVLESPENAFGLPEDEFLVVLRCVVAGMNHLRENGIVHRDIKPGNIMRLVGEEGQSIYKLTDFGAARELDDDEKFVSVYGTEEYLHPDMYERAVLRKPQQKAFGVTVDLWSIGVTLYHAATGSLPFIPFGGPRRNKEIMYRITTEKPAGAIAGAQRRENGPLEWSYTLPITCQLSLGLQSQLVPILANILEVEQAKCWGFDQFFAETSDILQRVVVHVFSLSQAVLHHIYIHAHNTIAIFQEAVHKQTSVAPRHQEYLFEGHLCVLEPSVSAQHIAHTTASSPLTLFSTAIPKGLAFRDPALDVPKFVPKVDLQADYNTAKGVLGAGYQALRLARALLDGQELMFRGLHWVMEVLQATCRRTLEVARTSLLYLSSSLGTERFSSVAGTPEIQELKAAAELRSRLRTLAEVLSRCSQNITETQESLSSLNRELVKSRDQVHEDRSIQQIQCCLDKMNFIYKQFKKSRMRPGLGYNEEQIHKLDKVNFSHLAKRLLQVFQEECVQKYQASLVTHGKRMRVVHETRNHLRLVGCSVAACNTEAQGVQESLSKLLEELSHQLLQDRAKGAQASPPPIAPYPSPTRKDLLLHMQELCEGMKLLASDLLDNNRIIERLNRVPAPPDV
In words: IKKε inhibition, ADP-Glo Kinase Assay. The class given is biochemical. The conditions noted are these: luminometer. The method in brief:
(§1)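 Each recombinant kinase enzyme system was run per the manufacturer's protocol in 40 mM Tris pH 7.5, 20 mM MgCl2 and 0.1 mg/mL BSA. Kinase activity was detected as ADP formation by ADP-Glo luminescence.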
For orientation: ADP-Glo first removes unused ATP, then detects ADP through luciferase.

For the next assay, the target named is T2, TBK1 (Homo sapiens, UniProt Q9UHD2).
T2 construct: purchased Promega V3991
T2 sequence (Q9UHD2 1-729): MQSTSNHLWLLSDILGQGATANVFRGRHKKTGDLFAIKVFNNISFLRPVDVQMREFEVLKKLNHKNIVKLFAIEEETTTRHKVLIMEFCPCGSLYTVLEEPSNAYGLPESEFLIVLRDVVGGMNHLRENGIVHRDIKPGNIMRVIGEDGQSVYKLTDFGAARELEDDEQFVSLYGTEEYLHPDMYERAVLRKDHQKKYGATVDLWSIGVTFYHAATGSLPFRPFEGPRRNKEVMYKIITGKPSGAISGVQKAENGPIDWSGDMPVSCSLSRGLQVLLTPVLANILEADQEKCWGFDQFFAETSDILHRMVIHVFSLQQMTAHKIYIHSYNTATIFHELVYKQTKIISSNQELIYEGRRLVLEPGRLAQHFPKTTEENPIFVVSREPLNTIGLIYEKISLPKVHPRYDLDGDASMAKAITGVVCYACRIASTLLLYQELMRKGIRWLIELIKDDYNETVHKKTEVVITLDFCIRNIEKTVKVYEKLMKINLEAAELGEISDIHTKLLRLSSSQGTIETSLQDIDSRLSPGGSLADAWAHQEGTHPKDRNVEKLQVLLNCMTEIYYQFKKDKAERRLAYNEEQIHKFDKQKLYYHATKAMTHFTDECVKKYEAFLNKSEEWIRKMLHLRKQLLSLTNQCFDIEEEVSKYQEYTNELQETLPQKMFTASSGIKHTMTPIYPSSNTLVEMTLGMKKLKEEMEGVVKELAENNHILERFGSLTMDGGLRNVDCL
Nature of the assay: TBK1 inhibition, ADP-Glo Kinase Assay. The conditions noted are these: luminometer. The class given is biochemical. The method, boiled down: as §1

Consider `CCCCNC(=O)c1ccc2[nH]nc(NC(=O)c3ccc(F)cc3)c2c1` [Example 24, N-Butyl-3-(4-fluorobenzamido)-1H-indazole-5-carboxamide], for which the IC50 came to 2.46 µM against IKKε and 0.66 µM on TBK1.
Take `O=C(NCc1cccs1)c1ccc2[nH]nc(NC(=O)c3ccc(NCCC4=CCCCC4)cc3)c2c1` [Example 167, 3-(4-((2-(Cyclohex-1-en-1-yl)ethyl)amino)benzamido)-N-(thiophen-2-ylmethyl)-1H-indazole-5-carboxamide]: the IC50 against IKKε is 3.9 µM; against TBK1, 1.1 µM.
For `CC(NC(=O)c1ccc2[nH]nc(NC(=O)c3ccc(N4CCN(C)CC4)cc3)c2c1)c1ccccc1` (centres unmarked) [Example 179, 3-(4-(4-Methylpiperazin-1-yl)benzamido)-N-(1-phenylethyl)-1H-indazole-5-carboxamide] the same measures were 0.019 µM and 0.0012 µM.
As for `CC(C)CCNC(=O)c1ccc2[nH]nc(NC(=O)c3ccc(N4CCOCC4)cc3)c2c1` [Example 116, N-Isopentyl-3-(4-morpholinobenzamido)-1H-indazole-5-carboxamide 2,2,2-trifluoroacetate], the IC50 on IKKε was determined as 3.12 µM; on TBK1 it was 0.48 µM.
The matching figures for `O=C(NCc1cccs1)c1ccc2[nH]nc(NC(=O)c3ccc(C4=CCNCC4)cc3)c2c1` [Example 199, 3-(4-(1,2,3,6-Tetrahydropyridin-4-yl)benzamido)-N-(thiophen-2-ylmethyl)-1H-indazole-5-carboxamide]: 0.14 µM and 0.0097 µM.
For `CN1CCN(c2ccc(C(=O)Nc3n[nH]c4ccc(C(=O)NC5(c6cccs6)CC5)cc34)cc2)CC1` [Example 49, 3-(4-(4-Methylpiperazin-1-yl)benzamido)-N-(1-(thiophen-2-yl)cyclopropyl)-1H-indazole-5-carboxamide] the same measures were 0.0034 µM and 0.0025 µM.
For `CN1CCC(Nc2ccc(C(=O)Nc3n[nH]c4ccc(C(=O)NCc5cccs5)cc34)cc2)CC1` [Example 213] the same measures were 0.069 µM and 0.0044 µM.
Regarding `CC(NC(=O)c1ccc2[nH]nc(NC(=O)c3ccc(N4CCOCC4)cc3)c2c1)c1cccnc1` (centres unmarked) [Example 52, 3-(4-Morpholinobenzamido)-N-(1-(pyridin-3-yl)ethyl)-1H-indazole-5-carboxamide], the IC50 at IKKε is more than 10 µM; at TBK1 it was 0.014 µM.
The matching figures for `CCC(NC(=O)c1ccc2[nH]nc(NC(=O)c3ccc(N4CCN(C)CC4)cc3)c2c1)c1cccs1` (centres unmarked) [Example 55, 3-(4-(4-Methylpiperazin-1-yl)benzamido)-N-(1-(thiophen-2-yl)propyl)-1H-indazole-5-carboxamide]: 0.0027 µM and 0.00093 µM.
The matching figures for `CN1CCN(c2ccc(C(=O)Nc3n[nH]c4ccc(C(=O)NC(c5cccs5)C5CC5)cc34)cc2)CC1` (centres unmarked) [Example 125, N-(Cyclopropyl(thiophen-2-yl)methyl)-3-(4-(4-methylpiperazin-1-yl)benzamido)-1H-indazole-5-carboxamide]: 0.037 µM and 0.026 µM.
For `CN1CCN(c2ccc(C(=O)Nc3n[nH]c4ccc(C(=O)NCc5ccno5)cc34)cc2)CC1` [Example 178, N-(Isoxazol-5-ylmethyl)-3-(4-(4-methylpiperazin-1-yl)benzamido)-1H-indazole-5-carboxamide] the same measures were 0.16 µM and 0.037 µM.
For `O=C(NCc1nccs1)c1ccc2[nH]nc(NC(=O)c3ccc(N4CCOCC4)cc3)c2c1` [Example 104, 3-(4-Morpholinobenzamido)-N-(thiazol-2-ylmethyl)-1H-indazole-5-carboxamide 2,2,2-trifluoroacetate], the IC50 at IKKε is 0.37 µM; on TBK1 it was 0.026 µM.
Turning to `CN1CCN(c2ccc(C(=O)Nc3n[nH]c4ccc(C(=O)NCC5CCCCC5)cc34)cc2)CC1` [Example 87, N-(Cyclohexylmethyl)-3-(4-(4-methylpiperazin-1-yl)benzamido)-1H-indazole-5-carboxamide], the IC50 was 0.072 µM against IKKε and 0.018 µM against TBK1.
